Assay type in all cases: cell-based
For assay [1], the system named is G. vaginalis ATCC 14018. The assay can be described thus: Agar-well inhibition zones of Lactobacillus culture supernatants. To be noted: 400 μl culture supernatant in agar well. As to the method: (§1) To test for their antimicrobial activity, all Lactobacillus isolates were grown anaerobically (to eliminate H2O2 production) in an MRS broth for 24 hours. The supernatants were collected and filter sterilized. Agar plates (Human Blood Tween agar for G.vaginalis, and Tryptic Soy agar with 5% sheep blood for other organisms) were inoculated with tested bacteria and 400 μl of each supernatant was added into the wells punched in the agar plates. The antimicrobial activity was determined by the size of the inhibition zones, similar to the disk method used for the determination of antibiotic activity. From our collection of clinical lactobacilli strains, we selected the strain identified as L. rhamnosus 160 since its extracellular product was characterized as having the highest antimicrobial activity, as shown in Table 1.

For assay [2], the system named is E. coli. Described as above. Conditions: 400 μl culture supernatant in agar well. On the procedure:
as §1

The subject of assay [3] is Staphylococcus sp. Described as above. Conditions: 400 μl culture supernatant in agar well. As to the method:
as §1

Assay [4] deals with Group B Streptococci. The description is as above. Conditions: 400 μl culture supernatant in agar well. As to the method: as §1
The subject of assay [5] is clinical isolates of G. vaginalis. The assay can be described thus: Antibiotic resistance of clinical isolates. The text has this:
The ability of G. vaginalis to induce HIV expression in vitro was investigated in chronically infected U1 cells by measuring HIV p24 antigen concentration. […] Moreover, we have also determined that clinical isolates of G. vaginalis are often resistant to metronidazol (73%), and clindamycin (38%), two drugs of choice for treatment of BV. […] Thus, the major BV-associated pathogens are able to increase sensitivity of human cells to HIV.

Each structure is given as a SMILES string.

On to `CC(O)C(=O)O` (stereo not drawn) [Lactic acid], for which the Zone of inhibition in assay [1], in assay [2], in assay [3] and in assay [4] was 1.5 mm each time.
Regarding `CCC[C@@H]1C[C@@H](C(=O)N[C@@H]([C@H]2O[C@H](SC)[C@H](O)[C@@H](O)[C@H]2O)[C@H](C)Cl)N(C)C1` [clindamycin], the “Share of clinical isolates of G. vaginalis resistant” value in assay [5] came to 38%.
Still for that read-out and setting: under `Cc1ncc([N+](=O)[O-])n1CCO` [metronidazol] stands 73%.

Values taken from patent US20090028839A1, “Compositions and methods for the prophylaxis and treatment of vaginal infections” (priority 2004, published 2009).
